From PMC9902548, “In silico and in vitro anti-inflammatory study of phenolic compounds isolated from Eucalyptus maculata resin” (Scientific Reports, 2023)

What was measured:
TNF-R2 = molecular target: T1, TNF-R2 (Homo sapiens, UniProt P20333); test: TNF-R2 binding activity, ELISA kit; details: mean ± SD, average of three determinations
T1 construct: purchased BPS Bioscience 79756
T1 sequence (P20333 23-257 limits assumed): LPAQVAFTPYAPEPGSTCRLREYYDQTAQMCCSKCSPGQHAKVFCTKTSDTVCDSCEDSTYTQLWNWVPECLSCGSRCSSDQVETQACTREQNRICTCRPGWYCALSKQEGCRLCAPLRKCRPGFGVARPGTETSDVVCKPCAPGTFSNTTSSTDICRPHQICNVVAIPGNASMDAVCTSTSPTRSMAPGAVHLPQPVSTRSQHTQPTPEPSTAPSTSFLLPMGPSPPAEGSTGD

NF-KB = NF-KB inhibition, ELISA kit; type: biochemical; details: for NF- KB IC50 ± SD: mean ± SD, average of three determinations
Procedure: (§1) The 50% inhibitory concentration (IC50) values were calculated from the concentration-inhibition response curve.
(§2) Cyclooxygenases (COX-1 and COX-2) were measured by an enzyme immunoassay (EIA) kit (Cayman Chemical, Ann Arbor, MI, USA) according to the manufacturer’s instructions. TNF-R2, NF-KB, and NO were measured by ELISA kit (#79756, BPS Bioscience, USA), (#CSB-EL015761HU, Cusabio, China).

NO = NO inhibition, ELISA kit; type: biochemical; details: mean ± SD, average of three determinations
Procedure: as §1, §2

COX-2 [1] = molecular target: T2, COX-2 (Homo sapiens, UniProt P35354); test: COX-2 inhibition, enzyme immunoassay (EIA) kit
T2 sequence (P35354 18-604): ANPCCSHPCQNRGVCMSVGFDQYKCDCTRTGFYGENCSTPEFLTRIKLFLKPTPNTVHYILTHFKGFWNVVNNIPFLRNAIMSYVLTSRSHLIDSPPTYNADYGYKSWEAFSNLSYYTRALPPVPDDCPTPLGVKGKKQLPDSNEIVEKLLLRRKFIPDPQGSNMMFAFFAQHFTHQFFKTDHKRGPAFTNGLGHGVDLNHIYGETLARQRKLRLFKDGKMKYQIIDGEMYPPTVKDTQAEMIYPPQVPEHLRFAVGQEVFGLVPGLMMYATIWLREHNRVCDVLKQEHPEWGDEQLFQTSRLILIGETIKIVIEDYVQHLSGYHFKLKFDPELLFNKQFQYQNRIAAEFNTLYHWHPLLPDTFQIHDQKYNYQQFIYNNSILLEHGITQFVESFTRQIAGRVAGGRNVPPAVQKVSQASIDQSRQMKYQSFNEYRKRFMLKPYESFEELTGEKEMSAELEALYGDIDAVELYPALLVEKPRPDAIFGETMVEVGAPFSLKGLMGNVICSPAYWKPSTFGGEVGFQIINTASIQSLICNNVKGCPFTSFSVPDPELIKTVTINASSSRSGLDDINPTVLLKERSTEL
Procedure: All enzyme inhibition activities were performed in triplicate and were examined using the sample t-test using the SPSS 26.0 program at (p < 0.05) (Table 1).

COX-1 = COX-1 (Ovis aries, UniProt P05979); set-up: method as in ref 15 (Zhang et al.); details: ref 15 (Zhang et al.); cited from earlier work
COX-2 [2] = molecular target: T2, COX-2; set-up: purchased Cayman Chemical; method as in ref 15 (Zhang et.al 2006); details: ref 15 (Zhang et.al 2006); cited from earlier work

Sequence of COX-1 (P05979 25-600): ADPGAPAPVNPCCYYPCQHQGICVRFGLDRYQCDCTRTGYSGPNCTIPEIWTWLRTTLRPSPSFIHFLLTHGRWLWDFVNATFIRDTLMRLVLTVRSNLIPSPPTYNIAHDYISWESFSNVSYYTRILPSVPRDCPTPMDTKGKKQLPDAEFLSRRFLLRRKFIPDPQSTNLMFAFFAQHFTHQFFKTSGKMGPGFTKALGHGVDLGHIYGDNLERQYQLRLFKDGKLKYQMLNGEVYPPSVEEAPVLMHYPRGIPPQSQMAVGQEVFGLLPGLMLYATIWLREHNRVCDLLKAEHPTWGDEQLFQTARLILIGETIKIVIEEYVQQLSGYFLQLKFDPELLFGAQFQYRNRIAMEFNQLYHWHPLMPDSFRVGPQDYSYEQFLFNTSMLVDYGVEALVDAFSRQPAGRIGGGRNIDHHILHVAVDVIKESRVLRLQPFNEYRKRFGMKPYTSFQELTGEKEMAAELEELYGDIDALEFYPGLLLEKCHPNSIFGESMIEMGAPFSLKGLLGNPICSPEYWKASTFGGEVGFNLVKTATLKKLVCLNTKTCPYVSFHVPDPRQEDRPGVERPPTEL

SMILES | IC50 (TNF-R2) | Suppression of NF-KB (in words) (NF-KB) | NF- KB IC50 ± SD (NF-KB) | NO IC50 ± SD (NO) | IC50 (COX-2 [1]) | Inhibitory effects on COX-1 (in words) (COX-1) | Inhibitory activity against COX-2 (in words) (COX-2 [2]) | COX-2 inhibitory activity (in words) (COX-2 [1])
O=C(O)/C=C/c1ccccc1 [Compound C2, (E)-cinnamic acid] | 51.5 nM | significantly moderate suppression | 0.00877 ± 7e-05 ng/mL | 66.00 ± 0.69 µg/mL | 34600 nM |  |  | 
COc1cc(O)c2c(c1)O[C@H](c1ccc(O)cc1)CC2=O [Compound C1, (2S)-5,4'-dihydroxy-7-methoxyflavanone] | 31 nM | significantly moderate suppression | 0.01007 ± 9e-05 ng/mL | 82.00 ± 1.06 µg/mL | 11300 nM | moderate inhibitory effects | no inhibitory activity | moderate inhibitory activity
COc1cc(O)c2c(c1)O[C@H](c1ccc(O)cc1)[C@@H](O)C2=O [Compound C4, 7-O-methyl aromadendrin] | 27.6 nM | significantly moderate suppression | 0.00933 ± 3e-05 ng/mL | 76.40 ± 1.74 µg/mL | 8440 nM | moderate inhibitory effects | no inhibitory activity | moderate inhibitory activity
COc1cc(/C=C/C(=O)CC(=O)/C=C/c2ccc(O)c(OC)c2)ccc1O [Curcumin, reference compound] |  |  | 0.0078 ± 3e-05 ng/mL |  |  |  |  | 
O=C(C=Cc1ccccc1)OCC1OC(OC(=O)C=Cc2ccccc2)C(O)C(O)C1O [Compound C5, 1,6-dicinnamoyl-O-α-D-glucopyranoside] | 11.7 nM |  | 0.00607 ± 7e-05 ng/mL | 38.00 ± 0.04 µg/mL | 2630 nM |  |  | 
O=[N+]([O-])c1cccc2cn[nH]c12 [7-nitroindazole, 7-nitroindazole, reference compound] |  |  |  | 49.20 ± 0.80 µg/mL |  |  |  | 
